According to patent US20250354930A1, “IONIC LIQUID ENCAPSULATION OF NIR DYES FOR THE IMPROVEMENT OF BLOODSTAIN DETECTION” (University of Mississippi, priority 2024, published 2025):
Converted amounts (≈) assume the structure as drawn. “And” between values parts separate entries of the source, which are not always exact repeats. Equal entries are not always repeated. Where two headings read alike, the source gives them in different places.

Columns and labels:
[1] = Conductivity measurements of 160 mM solutions; type: physicochemical
Description: Conductivity was measured using a Thermo Scientific Orion Star […] conductivity meter using a DuraProbe 4-electrode conductivity cell. […] The clean probe was introduced into each solution to record the conductivity. The conductivity was measured in triplicate for each of the solutions.

HSA [2] = target: T1, HSA (Homo sapiens, UniProt P02768); assay: Isothermal titration calorimetry of HSA titrated into SO3SQ; type: binding
T1 sequence (P02768 25-609): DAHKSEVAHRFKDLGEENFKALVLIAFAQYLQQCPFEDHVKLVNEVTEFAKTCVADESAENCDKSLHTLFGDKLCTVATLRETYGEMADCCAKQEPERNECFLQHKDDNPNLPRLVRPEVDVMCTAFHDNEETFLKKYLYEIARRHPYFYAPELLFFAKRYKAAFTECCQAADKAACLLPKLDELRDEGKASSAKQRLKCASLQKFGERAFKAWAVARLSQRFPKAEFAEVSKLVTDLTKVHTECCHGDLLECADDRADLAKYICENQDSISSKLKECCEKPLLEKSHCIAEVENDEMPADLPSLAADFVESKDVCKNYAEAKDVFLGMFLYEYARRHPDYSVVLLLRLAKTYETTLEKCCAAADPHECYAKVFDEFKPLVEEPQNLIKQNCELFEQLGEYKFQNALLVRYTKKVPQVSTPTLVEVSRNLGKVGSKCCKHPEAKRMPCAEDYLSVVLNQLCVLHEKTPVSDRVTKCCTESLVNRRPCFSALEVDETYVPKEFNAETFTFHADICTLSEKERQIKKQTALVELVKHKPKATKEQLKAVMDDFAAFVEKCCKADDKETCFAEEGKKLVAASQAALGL
Description: ITC measurements were carried out in triplicate on a Malvern VP-ITC. Uncertainties are provided as the standard error of the mean. The solvent was either buffer alone (25 mM sodium phosphate, pH 6.5) or buffer plus 40 mM CG 1:1. HSA was dialyzed into the appropriate buffer, and solid SO3SQ was dissolved in dialysis buffer to ensure a close buffer match. This was necessary in order to prevent strong heats of dilution that are often observed when ILs are titrated in separately. Both HSA and dye solutions were degassed for 10 min before experiments. A typical experiment contained 60 μM HSA in the syringe and 60 μM dye in the calorimetry cell. A total of 28 injections were typically used, each 10 μL in volume, and 10 min of equilibration time was allowed to occur between injections. Measurements were performed at 25° C. Because injection heats and corresponding signal-to-noise ratios were small, manual baseline fitting was performed using Origin software. Since K and N cannot be determined using this ratio of HSA and dye in the presence of CG 1:1, only the enthalpy is accessible from these measurements. The enthalpy for each ITC experiment was reported as the average enthalpy of the first 10 useable injections, which were all similar. […] For reverse titrations, performed without CG 1:1, N, K, and ΔH were fit using CHASM, and the heat of the final injection was used as the baseline. The number of binding sites per HSA molecule was reported as the inverse value of N from fitting, as is typical for reverse titrations. Finally, titrations were also performed where SO3SQ or HSA was systematically removed, one at a time, in the presence and absence of CG 1:1, to determine whether dilution heats were contributing to the measured enthalpy. In all cases, dilution heats were small, less than 10% of the observed enthalpy, and no further corrections were made.

HSA [3] = target: T1, HSA; assay: Circular dichroism spectroscopy of HSA; details: 1 mg/mL HSA; 10 μM SO3SQ, with or without 160 mM CG (1:1)
Description: CD experiments to determine the impact the 1:1 SO3SQ and CG 1:1 may have on HSA and DNA were performed on a Jasco J-1500 CD spectrophotometer. The measurements were performed using a Jasco Spectrosil 1 mm path length cuvette. Samples containing HSA were prepared at 1 mg/mL in either water, 10 μM SO3SQ in water, and 10 μM SO3SQ in water with 1:1 160 mM CG 1:1 added. The protein scans were conducted at a 200-260 nm range. For measurements involving DNA, bacterial plasmid DNA was used, and the DNA concentration was maintained at 12 nM across all samples due to high instrument sensitivity. CG 1:1 was added at 2.5% v/v to achieve a 160 mM concentration. A solution of 9.14 μM SO3SQ in water was made and added to DNA solutions in 5 μL increments. These scans were completed over a 200-350 nm range.

Aqueous solubility = type: physicochemical; details: water
[4] = target: T2, human serum albumin (HSA) (Homo sapiens, UniProt P02768); details: for free energy of binding: calculated from KA
T2 sequence (P02768 25-609): as above

[5] = in the presence of fetal bovine serum; cited from earlier work
[6] = target: T2, human serum albumin (HSA); details: dissolved in human serum albumin (HSA); cited from earlier work
HSA [7] = target: T1, HSA; assay: Dynamic light scattering size and zeta potential of HSA systems; details: 0.1 mg/mL HSA in 10 μM SO3SQ, no IL
[8] = 10 μM dye; IL scanned 0-240 mM or additive at 160 mM
[9] = absence of CG 1:1, reverse titration, 25° C.

[Cl-].[Na+] [NaCl]
Conductivity, Mean ± SD [1]: 20.4 ± 0.2 μS/cm | Conductivity, Replicate 1 [1]: 20.2 μS/cm | Conductivity, Replicate 2 [1]: 20.6 μS/cm | Conductivity, Replicate 3 [1]: 20.3 μS/cm | average conductance [1]: 20.4±0.2 mS/cm | conductance relative to that of the IL [1]: 100 ×

CC1=C(c2ccc(OCCCCS(=O)(=O)O)cc2)/C(=C2/C(=O)C(c3c(-c4ccc(OCCCCS(=O)(=O)[O-])cc4)c(C)c4ccccn34)C2O)[n+]2ccccc21 (stereo not drawn) [SO3SQ]
K (HSA [2]; [9]): (1.8±0.4)×10^6 | N (number of binding sites per HSA molecule) (HSA [2]; [9]): 11.5±0.4 | heat of binding, ΔH (HSA [2]; [9]): -18 ± 2 kcal/mol | ΔG° (HSA [2]; [9]): -8.50 ± 0.13 kcal/mol | enthalpy of binding between HSA and SO3SQ, ΔH (HSA [2]; buffer containing 40 mM ionic liquid, 25 mM sodium phosphate pH 6.5, 25° C.): 6.1 ± 0.2 kcal/mol | effect on the secondary structure of HSA (HSA [3]): increase in the alpha helical content | solubility (Aqueous solubility): ~60 µM (≈ 47.9 µg/mL) | apparent association constant KA,app of HSA in SO3SQ ([4]; 10 μM SO3SQ, no IL): 3.2×10^5 and 2.0×10^5 | free energy of binding ([4]; system containing just the dye): -7.4 kcal/mol | free energy of binding ([4]; system containing the dye and IL): -8.0 kcal/mol | fluorescence quantum yield ΦF [5]: 58% | fluorescence quantum yield ΦF [6]: 61.1% | average charge (zeta potential) (HSA [7]): −20±5 mV | average size (HSA [7]): 150±20 nm

O=C(O)CO [glycolic acid]
effect on the dye's fluorescence in the presence of blood [8]: little impact
